Here are results for two compounds from patent US20020151491A1, “Composition and method for treating the over-production of mucin in diseases such as otitis media using an inhibitor of MUC5AC” (priority 2000, published 2002).

The experiment relates to MUC5AC transcription. As to the kind of experiment: MUC5AC promoter-luciferase reporter assay (pMUC5AC3.7luc) in human epithelial cells. The experiment is classed as cell-based. On the procedure: The luciferase assay was performed as follows: expression plasmids fp38α(AF) and fp38β(AF) were previously described in Shuto, et al. (2001) Proc. Natl, Acad. Sci. U.S.A. 98, pages 8774-9. The expression plasmids p110, p85α, Akt KD, and Akt WT were provided by D. Stokoe (University of California, San Francisco). The reporter construct MUC5AC contained 3.7-kb 5′-flanking region of the human MUC5AC mucin gene in a luciferase reporter vector pGL3 (Li, et al. 1998, J. Biol. Chem. 273, 68126820). Transient transfections of cells were performed in triplicate with Trans IT-LT1 (Panvera, Madison, WT) following the manufacturer's instructions. Forty-two hours after transfection, the cells were treated with NTHi for 4 h and then harvested for use in the luciferase assay. For experiments with inhibitors, HM3 cells stably transfected with MUC5AC-luciferase plasmid were pretreated with inhibitors for 1-2 h, then treated with NTHi for 4 h and harvested for luciferase assays. Luciferase assays were performed on a Monolight 3010 luminometer for 15 s (Analytical Luminescence, San Diego, Calif.). The NTHi-dependent fold induction was calculated relative to the luciferase light units obtained in the absence of NTHi treatment. The normalized luciferase activity was thus expressed as relative luciferase activity (fold induction).
A general note: A reporter such as luciferase makes a cellular process visible.

As for `C[S+]([O-])c1ccc(-c2nc(-c3ccncc3)c(-c3ccc(F)cc3)[nH]2)cc1` (stereo not shown) [SB203580], the “effect on NTHi-induced MUC5AC transcription (luciferase activity)” value (HM3 cells stably transfected with pMUC5AC3.7luc, pretreated with inhibitor 1-2 h, then NTHi SCF 4 h) was “inhibited MUC5AC induction in response to NTHi cytoplasmic proteins in a dose-dependent manner”. Further, the “effect on NTHi-induced MUC5AC transcription in cells already pretreated with wortmannin” value (HM3 cells stably transfected with pMUC5AC3.7luc, wortmannin pretreatment first) is reported as “still capable of inhibiting NTHi-induced MUC5AC transcription”.

Turning to Polymyxin B, the “effect on MUC5AC transcription induced by LPS from S. typhimurium” value (LPS pretreated with various concentrations of polymyxin B 10 min at 4° C., HM3 pMUC5AC3.7luc cells, 4 h) is given as “significantly reduced MUC5AC transcription”. The “effect on MUC5AC transcription induced by NTHi soluble cytoplasmic fraction” value (SCF pretreated with various concentrations of polymyxin B for 10 min, HM3 pMUC5AC3.7luc cells) is recorded as “no significant reduction in NTHi-induced MUC5AC transcription”.
